The record followed here is patent US12280072B2, “Oligosaccharide compound for inhibiting intrinsic coagulation factor X-enzyme complex, and preparation method therefor and uses thereof” (Jiuzhitang Co., Ltd., priority 2017, dated 2025).

The structures appear in SMILES notation.

The test system of data set [1] is human-controlled plasma. The experiment in a line: Anticoagulant activity assay: APTT clotting time. It counts as biochemical. Summed up:
(§1)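 Compounds in Tris-HCl buffer were serially diluted, and 10 μL was added to 90 μL human control plasma. PT and APTT clotting times were measured on an MC-4000 coagulometer following kit instructions.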

The target of the next data set is T1, intrinsic factor Xase (Homo sapiens, UniProt P00740).
T1 construct: 60 nM FIXa; purchased
The experiment in a line: Xase inhibitory activity assay. Type of data set: biochemical. Conditions: read-out: Drug concentration required to inhibit 50% of coagulation factor activity (IC50, ng/mL) Xase (converted). Summed up: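 Reagents mixed at 37 °C: compound with FVIII (2 IU/ml) and FIXa reagent (60 nM, with FIIa, PC/PS, Ca2+) for 2 min, then FX reagent (50 nM, with thrombin inhibitor) for 1 min, then chromogenic substrate SXa-11. OD405 slope over 7.5 min, relative to buffer control as 100%; IC50 from Hill-equation fit.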

The target in a further data set is T2, FXa (Homo sapiens).
T2 construct: 8 μg/mL FXa solution; purchased
The experiment in a line: AT-dependent Xa inhibitory activity assay. Type of data set: biochemical. The conditions noted are these: in presence of AT; read-out: Drug concentration required to inhibit 50% of coagulation factor activity (IC50, ng/mL) Xa (AT). Summed up:
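Sample preincubated 1 min at 37 °C with antithrombin (1 IU/mL solution), then FXa (8 µg/mL solution) 1 min, then chromogenic substrate SXa-11 (1.25 mM solution). Rate of OD405 change gives residual FXa activity relative to buffer control; duplicates, IC50 fitted with a Hill equation.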

For data set [2], the system named is human-controlled plasma. Kind of data set: Anticoagulant activity assay: PT clotting time. Type of data set: biochemical. In short, it runs like this: as §1
Data set [3] deals with T3, FIIa (Homo sapiens).
T3 construct: antithrombin (i.e., active coagulation factor IIa); purchased
Kind of data set: AT-dependent IIa inhibitory activity assay. It counts as biochemical. The conditions noted are these: in presence of AT; read-out: Drug concentration required to inhibit 50% of coagulation factor activity (IC50, ng/mL) Ha (AT). Summed up:
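Sample preincubated with 1 IU/mL antithrombin 2 min at 37 °C, then 24 IU/mL FIIa 2 min, then 1.25 mM chromogenic substrate CS-01 (stock concentrations). OD405 rate relative to buffer control gave residual activity; IC50 from Hill-equation fit.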
T3 sequence (P01008 33-464): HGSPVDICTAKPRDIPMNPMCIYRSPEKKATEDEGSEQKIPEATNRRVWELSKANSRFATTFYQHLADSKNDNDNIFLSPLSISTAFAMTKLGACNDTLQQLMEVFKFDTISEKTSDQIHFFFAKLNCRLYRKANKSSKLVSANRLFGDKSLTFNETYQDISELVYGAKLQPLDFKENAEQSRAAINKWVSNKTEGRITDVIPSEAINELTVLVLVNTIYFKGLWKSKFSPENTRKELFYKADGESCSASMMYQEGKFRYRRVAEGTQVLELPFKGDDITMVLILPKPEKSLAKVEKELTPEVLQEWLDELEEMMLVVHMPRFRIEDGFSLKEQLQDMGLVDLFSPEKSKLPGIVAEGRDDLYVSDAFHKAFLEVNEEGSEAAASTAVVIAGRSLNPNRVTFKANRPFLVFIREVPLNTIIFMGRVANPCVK

Another data set deals with plasma. Kind of data set: TT (thrombin time) clotting time. It counts as biochemical.
Data set [4] relates to inferior vena cava thrombosis. The experiment in a line: Anti-venous thrombosis experiment (rabbit brain powder infusion plus ligation). It counts as in vivo, SD rats. Conditions: rats, sc., experimental dose (2.5, 5.0, 10 mg/kg). As for the experimental part: Grouping and Administration: Rats were randomly divided into 8 groups with 8 animals in each group. The experimental groups and the dose of the animals in each group were (1) natural saline (NS) control group; (2) LMWH 4.0 mg/kg group; (3) A2 2.5 mg/kg group; (4) A2 group 5.0 mg/kg; (5) A2 10 mg/kg group; (6) D1 2.5 mg/kg group; (7) D1 5.0 mg/kg group; (8) D1 10 mg/kg group. The rats in each group were administered subcutaneously (sc.) into the back, and the administration volume was 1 mL/kg. The modeling experiment was performed 1 hour after administration. A New Zealand rabbit was sacrificed, and the rabbit brain was taken out immediately. Rabbit brain powder infusion was prepared according to the literature method (Thromb Haemost, 2010, 103(5): 994-1004), and stored at −20° C. for use. […] The femoral vein was injected with 2% rabbit brain powder infusion (1 mL/kg). After 20 seconds, the lower margin of the left renal vein was ligated. After the operation, the viscera was placed back into the abdominal cavity and covered with medical gauze (infiltrated with natural saline). […] The length of the thrombus was measured, and the wet weight of the thrombus was weighed and then dry weight was weighed after drying at 50° C. for 24 h. The SPSS software was used to organize and analyze the data, and the measurement data were expressed as mean±standard deviation (x±s). […]

The next data set deals with mouse tail bleeding. Kind of data set: Bleeding tendency detection (tail-clipping method). Type of data set: in vivo. The conditions noted are these: mice, sc., high dose of equal multiple of the equivalent antithrombotic dose, vs LMWH. As for the experimental part:
Grouping and administration: Mice were randomly divided into 10 groups with 8 animals in each group. The experimental groups and the dose of the animals in each group were (1) natural saline (NS) control group; (2) LMWH 4.0 mg/kg group; (2) LMWH 20 mg/kg group; (3) LMWH 100 mg/Kg group; (4) A2 5 mg/kg group; (5) A2 25 mg/kg group; (6) A2 125 mg/kg group; (7) D1 5 mg/kg group; (8) D1 25 mg/Kg group; (10) D1 125 mg/kg group. The […] in each group were administered subcutaneously (sc.) into the back, and the dose volume was 10 mL/kg.
After 60 min of subcutaneous administration in each experimental group, the mice were placed in a mouse holder, and the tail tip was cut by 5 mm by tail-clipping method, and the mouse tail was immersed in 40 mL of purified water (37° C.) in the beaker. […] At 60 min, the beaker was placed for 60 min and then the absorbance of the solution (OD540) was detected by a UV spectrophotometer.
In addition, whole blood of healthy mice was taken, and the whole blood of different volumes of mice was added to 40 mL of purified water, stirred uniformly and allowed to stand for 60 min. The absorbance (OD540) of the solution was detected by the same method and the volume-absorbance curve was plotted and used as the standard curve for calculating the amount of bleeding. The amount of bleeding in each experimental group was calculated by the standard curve. […]

The target of data set [5] is T4, FIIa (Homo sapiens).
T4 construct: antithrombin (i.e., active coagulation factor IIa)
The experiment in a line: HC-II-dependent IIa inhibitory activity assay. It counts as biochemical. The conditions noted are these: in presence of HC-II; read-out: Drug concentration required to inhibit 50% of coagulation factor activity (IC50, ng/mL) Ha (HC-II) (converted). As for the experimental part: HC-II-dependent IIa inhibitory activity assay: 30 μL of sample, control solution or Tris-HCl buffer (negative control) was added, 30 μL of 1 μM HCII solution was added, and incubated at 37° C. for 2 min; and then 30 μL of 20 NIH/mL FIIa was added, and incubated at 37° C. for 1 min; and finally 30 μL of pre-warmed 4.5 mM FIIa chromogenic substrate CS-01 (38) was added. OD405 was detected by a microplate reader and the IC50 value of FIIa inhibition of each sample was calculated.
Data processing: The average value of OD405 detected by the duplicated well was used as the detection value of the test sample and the reference of each concentration, and the slope of the linear fit between the detected value to the time value (the change rate of the absorbance value OD405/min) indicated enzymatic activity of coagulation factor. Taking the clotting factor activity of the negative control well as 100%, coagulation factor activity (percentage) in the presence of the test sample was calculated. The coagulation factor activity in the presence of the test sample was plotted against the concentration of the test sample, and fitted according to the following formula, to calculate the IC50 value: B=(IC50)^n/{(IC50)^n+[I]^n} […]
T4 sequence (P05546 20-499): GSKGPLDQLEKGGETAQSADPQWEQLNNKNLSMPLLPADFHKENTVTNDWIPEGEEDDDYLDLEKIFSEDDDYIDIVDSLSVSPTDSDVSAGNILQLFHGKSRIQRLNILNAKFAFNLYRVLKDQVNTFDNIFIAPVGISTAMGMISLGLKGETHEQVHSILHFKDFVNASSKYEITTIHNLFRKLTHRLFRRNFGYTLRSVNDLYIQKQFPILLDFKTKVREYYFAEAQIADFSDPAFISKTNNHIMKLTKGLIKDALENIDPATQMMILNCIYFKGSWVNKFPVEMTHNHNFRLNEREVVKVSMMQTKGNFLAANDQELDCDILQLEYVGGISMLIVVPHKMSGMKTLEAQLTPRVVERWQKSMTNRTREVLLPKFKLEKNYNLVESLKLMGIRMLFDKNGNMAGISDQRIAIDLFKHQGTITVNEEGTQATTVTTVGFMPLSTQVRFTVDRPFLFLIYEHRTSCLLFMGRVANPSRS

T1 sequence (P00740 47-191 limits assumed): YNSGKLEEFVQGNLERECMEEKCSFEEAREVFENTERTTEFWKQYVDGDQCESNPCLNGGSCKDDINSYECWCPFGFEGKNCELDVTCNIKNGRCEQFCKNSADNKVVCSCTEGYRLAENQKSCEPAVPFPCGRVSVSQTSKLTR
T1 sequence (P00740 227-461 limits assumed): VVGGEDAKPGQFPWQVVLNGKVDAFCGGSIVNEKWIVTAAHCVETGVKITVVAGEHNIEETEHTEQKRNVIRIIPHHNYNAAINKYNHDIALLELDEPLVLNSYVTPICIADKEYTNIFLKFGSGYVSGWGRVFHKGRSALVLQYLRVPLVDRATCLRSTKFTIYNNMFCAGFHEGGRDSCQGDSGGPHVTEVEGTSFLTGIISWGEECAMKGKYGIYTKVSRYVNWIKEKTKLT
T2 sequence (P01008 33-464): as the sequence (P01008 33-464) above

Take `CC(=O)NC(CO)C(OC1OC(C(=O)O)C(OC2OC(COS(=O)(=O)O)C(OS(=O)(=O)O)C(OC3OC(C(=O)O)C(OC4OC(COS(=O)(=O)O)C(OS(=O)(=O)O)C(OC5OC(C(=O)O)=CC(OC6OC(C)C(OS(=O)(=O)O)C(O)C6OS(=O)(=O)O)C5O)C4NC(C)=O)C(OC4OC(C)C(OS(=O)(=O)O)C(O)C4OS(=O)(=O)O)C3O)C2NC(C)=O)C(OC2OC(C)C(OS(=O)(=O)O)C(O)C2OS(=O)(=O)O)C1O)C(OS(=O)(=O)O)C(O)COS(=O)(=O)O` [Compound A2, L-Fuc2S4S-(α1,3)-ΔUA-(α1,3)-{D-GaNAc4S6S-(β1,4)-[L-Fuc2S4S-(α1,3)]-D-GlcA-(β1,3)}n+1-D-GalNAc4S6S-ol]: in the data set with human-controlled plasma [1], the “Drug concentration required for multiplication of coagulation time (μg/mL) APTT” value stood at 7.2 µg/mL. Moreover, the IC50 at intrinsic factor Xase is 23.8 nM; at FXa (Homo sapiens) it was more than 1970 nM; at FIIa (Homo sapiens) [3] it was more than 1970 nM. Also, the “Drug concentration required for multiplication of coagulation time (μg/mL) PT” value with human-controlled plasma [2] is “# (>128 μg/mL)”. Besides, the “Drug concentration required for multiplication of coagulation time (μg/mL) TT” value with plasma is listed as “# (>128 μg/mL)”. In addition, the antithrombotic activity result in data set [4] is “significant antithrombotic activity”. Moreover, the amount of bleeding entry in the data set with mouse tail bleeding is “significantly lower than that in LMWH administration group”.
For `CC(=O)N[C@H]1[C@H](O[C@H]2[C@H](O[C@@H]3O[C@@H](C)[C@@H](OS(=O)(=O)O)[C@@H](OS(=O)(=O)O)[C@@H]3O)[C@@H](O)C(O)O[C@@H]2C(=O)O)O[C@H](COS(=O)(=O)O)[C@H](OS(=O)(=O)O)[C@@H]1O[C@@H]1OC(C(=O)O)=C[C@H](O[C@@H]2O[C@@H](C)[C@@H](OS(=O)(=O)O)[C@@H](OS(=O)(=O)O)[C@@H]2O)[C@H]1O` (stereo partly drawn) [Compound B6, L-Fuc3S4S-(α1,3)-L-ΔUA-(α1,3)-{D-GaNAc4S6S-(β1,4)-[L-Fuc3S4S-(α1,3)]-D-GlcA-(β1,4)}˜-D-GalNAc4S6S-(β1,4)-[L-Fuc3S4S-(α1,3)]-D-GlcA], the “Drug concentration required for multiplication of coagulation time (μg/mL) APTT” value in the data set with human-controlled plasma [1] was 50.2 µg/mL. For the same compound, the IC50 on intrinsic factor Xase was 1260 nM; at FXa (Homo sapiens), more than 3760 nM; at FIIa (Homo sapiens) [3] it was more than 3760 nM; on FIIa (Homo sapiens) [5] it was 615 nM. For the same compound, the “Drug concentration required for multiplication of coagulation time (μg/mL) PT” value with human-controlled plasma [2] is on record as “# (>128 μg/mL)”. Moreover, the “Drug concentration required for multiplication of coagulation time (μg/mL) TT” value with plasma is listed as “# (>128 μg/mL)”.
